Test results from publication PMC7179205, “An Improved Synthesis of Key Intermediate to the Formation of Selected Indolin-2-Ones Derivatives Incorporating Ultrasound and Deep Eutectic Solvent (DES) Blend of Techniques, for Some Biological Activities and Molecular Docking Studies” (Molecules, 2020).
“Also recorded” adds a separate entry of the source. Where two headings read alike, the source gives them in different places. Values belong to the compound of their own block, whether it stands above or below them.

What was measured:
[1] = test system: acetic acid-induced writhing; assay: acetic acid-induced writhing method (analgesic activity); assay type: in vivo, Swiss albino mice; conditions: for inhibition in vivo at 10 mg/kg: Mus musculus, read-out: % Analgesic Activity; for analgesic activity (in words): compared with standard indomethacin; for Potency (analgesic): relative to indomethacin = 1.00, 10 mg/kg; for Mean with ± SEM: writhes counted for 15 min
Method: All the tested compounds and standard drugs are evaluated at 10 mg/kg oral dose.
The analgesic activity of the tested compounds was carried out by acetic acid-induced writhing method as given in the literature using Swiss albino mice of either sex (25–35 g). The writh were induced in the albino mice using an intraperitoneal injection of 1% acetic acid solution. The standard drug indomethacin and test compounds were evaluated at a concentration of 10 mg/kg of the body weight. The animals were divided into groups and each group consisted of six animals. One group was kept as control, one as standard, and other as test groups. To the control group, 0.1% CMC solution was administered p.o; to the standard group, the standard drug was administered orally, and to the test group, test compounds were administered orally. After 60 min of the 0.1% CMC solution/standard drug/tested compound administration, 0.1 ml of 1% (v/v) acetic acid solution in distilled water was injected intraperitoneally in all the mice in each group including the control group. The writhing (a contraction of the abdomen, turning of trunk, and extension of hind limbs) was counted after 5 min of acetic acid administration and were counted for a period of 15 min. The percentage of analgesic activity was calculated using the following formula.
(Mean wriths of control—mean wriths of std./test) / mean wriths of control) × 100

[2] = test system: Rat Paw Edema; assay: carrageenan-induced hind paw edema method (anti-inflammatory activity); assay type: in vivo, Wistar albino rats; conditions: for inhibition in vivo at 10 mg/kg: Rattus norvegicus, po; for inhibition in vivo at 10 mg/kg / % Age Inhibition of Rat Paw Edema, 4 H / anti-inflammatory activity (in words): oral dose 10 mg/kg; for inhibition in vivo at 10 mg/kg / % Age Inhibition of Rat Paw Edema, 4 H: mean ± SEM; for anti-inflammatory activity (in words): compared with standard indomethacin; for Potency (anti-inflammatory): relative to indomethacin = 1.00
Method: The anti-inflammatory activity of the synthesized compounds (4a–n) was evaluated by the carrageenan-induced paw edema method. An oral dose of 10 mg/kg was used for compounds and compared with the standard. Anti-inflammatory activity was accessed through percentage inhibition after 2 and 4 h (Table 1).
Compounds produced were assessed for their anti-inflammatory activity using the carrageenan-induced hind paw edema method. The anti-inflammatory activity was carried out using Wistar albino rats of either sex (150–220 g) using a Digital Plethysmometer (Model No. 7140, UGO BASILE). The edema was induced by using 1% carrageenan solution. Indomethacin was used as a standard drug. The anti-inflammatory activity of the standard drug and tested compounds was determined at a dose of 10 mg/kg body weight. The animals were divided into groups containing six animals each and the initial paw volume of each rat was noted by the NaCl displacement method. One group was kept as control, one as standard, and the rest of the groups of compounds were to be tested. To the control group, 1% CMC solution was administered p.o. To the standard group, the standard drug was administered orally. To the test group, tested compounds were administered orally. After 60 min of the 1% CMC solution/standard drug/test compound administration, 0.1 ml of 1% (w/v) carrageenan was injected in the plantar region of the hind limb (right) of all the rats in each group including the control group. The paw volume was again measured after the time interval of 2 and 4 h. Using the following formula, inflammation was calculated as percentage inhibition for the test and reference compounds
(Final foot volume of control—final foot volume of std./test) × 100 / final foot volume of control)

[3] = 2 h, 2 h, read-out: % Age Inhibition of Rat Paw Edema, 2 H
[4] = 4 h, 4 h, read-out: % Age Inhibition of Rat Paw Edema, 4 H

SMILES: Cc1ccc(NCN2C(=O)C(=NNc3nc(-c4cc5ccccc5oc4=O)cs3)c3ccccc32)cc1 [Compound 4m, 3-{[4-(2-Oxo-2H-chromen-3-yl)-thiazol-2-yl]-hydrazono}-1-(p-tolylamino-methyl)-1,3-dihydro-indol-2-one]
melting point: 244 to 246 °C | inhibition in vivo at 10 mg/kg ([1]; oral dose 10 mg/kg, mean ± SEM): 32.6 ± 0.845% | analgesic activity (in words) ([1]; oral dose 10 mg/kg): less analgesic activity | Potency (analgesic) [1]: 0.44 | Mean with ± SEM ([1]; oral dose 10 mg/kg): 21.83 ± 0.2051 | inhibition in vivo at 10 mg/kg [2, 3]: 53.27 ± 0.183% | inhibition in vivo at 10 mg/kg [2, 4]: 78.4% | % Age Inhibition of Rat Paw Edema, 4 H ([2]; 4 h, 10 mg/kg): 78.42 ±0.183 % | anti-inflammatory activity (in words) ([2]; 10 mg/kg): good anti-inflammatory activity; also recorded: significant anti-inflammatory activity; also recorded: better anti-inflammatory activity | Potency (anti-inflammatory) ([2]; 10 mg/kg): 0.95

SMILES: O=C1C(=NNc2nc(-c3cc4ccccc4oc3=O)cs2)c2ccccc2N1CNc1ccc(F)cc1 [Compound 4b, 1-[(4-Fluoro-phenylamino)-methyl]-3-{[4-(2-oxo-2H-chromen-3-yl)-thiazol-2-yl]-hydrazono}-1,3-dihydro-indol-2-one]
melting point: 242 to 244 °C | inhibition in vivo at 10 mg/kg ([1]; oral dose 10 mg/kg, mean ± SEM): 25.9 ± 0.58% | Potency (analgesic) [1]: 0.35 | Mean with ± SEM ([1]; oral dose 10 mg/kg): 24.00 ± 0.3651 | inhibition in vivo at 10 mg/kg [2, 3]: 59.3 ± 0.73% | inhibition in vivo at 10 mg/kg [2, 4]: 45.81 ± 0.069% | Potency (anti-inflammatory) ([2]; 10 mg/kg): 0.55

SMILES: O=C1C(=NNc2nc(-c3cc4ccccc4oc3=O)cs2)c2ccccc2N1CNc1ccc([N+](=O)[O-])cc1[N+](=O)[O-] [Compound 4g, 1-[(2,4-Dinitro-phenylamino)-methyl]-3-{[4-(2-oxo-2H-chromen-3-yl)-thiazol-2-yl]-hydrazono}-1,3-dihydro-indol-2-one]
melting point: 247 to 249 °C | inhibition in vivo at 10 mg/kg ([1]; po): 38 ± 1% | Potency (analgesic) [1]: 0.51 | Mean with ± SEM ([1]; oral dose 10 mg/kg): 20.09 ± 0.3561 | inhibition in vivo at 10 mg/kg [2, 3]: 53.57 ± 0.16% | inhibition in vivo at 10 mg/kg [2, 4]: 77.9% | % Age Inhibition of Rat Paw Edema, 4 H ([2]; 4 h, 10 mg/kg): 77.94 ± 0.184 % | anti-inflammatory activity (in words) ([2]; 10 mg/kg): good anti-inflammatory activity; also recorded: significant anti-inflammatory activity | Potency (anti-inflammatory) ([2]; 10 mg/kg): 0.94

Second part, led by results:

melting point: 231 to 233 °C
SMILES: O=C1C(=NNc2nc(-c3cc4ccccc4oc3=O)cs2)c2ccccc2N1CNc1cccnc1 [Compound 4k, 3-{[4-(2-Oxo-2H-chromen-3-yl)-thiazol-2-yl]-hydrazono}-1-(pyridine-3-ylaminomethyl)-1,3-dihydro-indol-2-one]
inhibition in vivo at 10 mg/kg ([1]; oral dose 10 mg/kg, mean ± SEM): 7.96 ± 0.432% | analgesic activity (in words) ([1]; oral dose 10 mg/kg): least analgesic activity | Potency (analgesic) [1]: 0.10 | Mean with ± SEM ([1]; oral dose 10 mg/kg): 29.83 ± 0.3073 | inhibition in vivo at 10 mg/kg [2, 3]: 38.09 ± 0.214% | inhibition in vivo at 10 mg/kg [2, 4]: 70.8% | % Age Inhibition of Rat Paw Edema, 4 H ([2]; 4 h, 10 mg/kg): 70.75 ± 0.165% | anti-inflammatory activity (in words) [2]: significant anti-inflammatory activity | Potency (anti-inflammatory) ([2]; 10 mg/kg): 0.86

melting point: 241 to 243 °C
SMILES: O=C1C(=NNc2nc(-c3cc4ccccc4oc3=O)cs2)c2ccccc2N1CNc1ccc(Br)cc1 [Compound 4d, 1-[(4-Bromo-phenylamino)-methyl]-3-{[4-(2-oxo-2H-chromen-3-yl)-thiazol-2-yl]-hydrazono}-1,3-dihydro-indol-2-one]
inhibition in vivo at 10 mg/kg ([1]; oral dose 10 mg/kg, mean ± SEM): 42.9 ± 0.71% | Potency (analgesic) [1]: 0.58 | Mean with ± SEM ([1]; oral dose 10 mg/kg): 18.50 ± 0.4282 | inhibition in vivo at 10 mg/kg [2, 3]: 51.92 ± 0.337% | inhibition in vivo at 10 mg/kg [2, 4]: 6.98 ± 0.315% | anti-inflammatory activity (in words) [2]: negligible anti-inflammatory activity | Potency (anti-inflammatory) ([2]; 10 mg/kg): 0.08

melting point: 236 to 238 °C
SMILES: O=C1C(=NNc2nc(-c3cc4ccccc4oc3=O)cs2)c2ccccc2N1CNn1cnnc1 [Compound 4h, 3-{[4-(2-Oxo-2H-chromen-3-yl)-thiazol-2-yl]-hydrazono}-1-([1,2,4]triazol-4-ylaminomethyl)-1,3-dihydro-indol-2-one]
inhibition in vivo at 10 mg/kg ([1]; oral dose 10 mg/kg, mean ± SEM): 26.5 ± 0.317% | analgesic activity (in words) ([1]; oral dose 10 mg/kg): steep decrease in analgesic activity | Potency (analgesic) [1]: 0.35 | Mean with ± SEM ([1]; oral dose 10 mg/kg): 23.83 ± 0.3073 | inhibition in vivo at 10 mg/kg [2, 3]: 35.39 ± 0.273% | inhibition in vivo at 10 mg/kg [2, 4]: 64.69 ± 0.245% | Potency (anti-inflammatory) ([2]; 10 mg/kg): 0.78
